Biological target: T1, androgenic receptors (rat prostate cytosol) (Rattus norvegicus, UniProt P15207)
T1 construct: from tissue; host or cells: prostate cytosol (209,000 g supernatant) of castrated male Sprague Dawley EOPS rats
T1 sequence (P15207 1-902): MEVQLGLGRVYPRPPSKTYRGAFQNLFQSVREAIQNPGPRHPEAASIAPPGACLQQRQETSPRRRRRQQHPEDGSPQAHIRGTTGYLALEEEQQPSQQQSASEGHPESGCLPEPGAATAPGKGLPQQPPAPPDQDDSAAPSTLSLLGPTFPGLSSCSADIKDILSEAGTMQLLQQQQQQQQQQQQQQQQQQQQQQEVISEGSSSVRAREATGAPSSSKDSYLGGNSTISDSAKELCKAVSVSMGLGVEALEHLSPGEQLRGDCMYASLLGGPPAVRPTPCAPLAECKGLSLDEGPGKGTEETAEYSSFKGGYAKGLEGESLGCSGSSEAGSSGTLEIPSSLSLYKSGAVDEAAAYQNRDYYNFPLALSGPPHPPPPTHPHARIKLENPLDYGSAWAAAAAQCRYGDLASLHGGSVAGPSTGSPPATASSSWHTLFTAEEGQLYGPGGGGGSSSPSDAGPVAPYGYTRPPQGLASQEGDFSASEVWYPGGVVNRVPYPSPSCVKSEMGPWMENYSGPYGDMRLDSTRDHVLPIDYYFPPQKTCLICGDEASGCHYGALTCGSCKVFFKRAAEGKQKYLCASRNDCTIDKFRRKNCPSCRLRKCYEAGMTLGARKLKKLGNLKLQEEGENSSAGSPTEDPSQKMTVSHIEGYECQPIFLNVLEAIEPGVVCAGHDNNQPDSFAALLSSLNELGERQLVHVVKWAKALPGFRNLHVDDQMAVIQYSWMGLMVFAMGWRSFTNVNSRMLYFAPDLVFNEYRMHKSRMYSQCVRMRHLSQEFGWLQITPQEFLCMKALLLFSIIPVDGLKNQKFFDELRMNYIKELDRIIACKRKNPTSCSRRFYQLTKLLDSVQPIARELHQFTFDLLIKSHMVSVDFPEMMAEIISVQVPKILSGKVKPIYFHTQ
Assay: Study of androgenic receptors: relative binding affinity (RBA) versus tritiated testosterone in prostate cytosol of castrated rats
Set-up: species or system male rats of the Sprague Dawley EOPS strain
Conditions: 24 H incubation; testosterone=100; RBA=100(CH)/(CX)
Experimental: Male rats of the Sprague Dawley EOPS strain weighing 180 to 200 g, castrated 24 hours previously, were killed and the prostate was removed, weighed and homogenized at 0° C. with a potter glass in a buffered solution (Tris 10 mM, saccharose 0.25M, PMSF (phenyl methane sulfonyl fluoride) 0.1 mM, sodium molybdate 20 mM, HCl pH 7.4 into which was added extemporaneously […] of DTT (DL dithiothreitol) at a rate of 1 g of tissue per 8 ml of buffer solution. The homogenate was then ultracentrifuged at 0° C. for 30 minutes at 209,000 g and the aliquots of supernatant (=cytosol) were incubated for 30 minutes and 24 hours with a concentration (T) of tritiated testosterone and in the presence of increasing concentrations (0 to 2500×10^-9 M) of cold testosterone or the test products. The concentration of bound tritiated testosterone (B) was then measured for each incubate by adsorption method of carbon-dextran. The relative affinity of bonding (RBA) was calculated.
The following two curves were graphed: the percentage of the bound tritiated hormone B/T as a logarithmic function of the concentration of the cold hormone and B/T as a logarithmic function of the concentration of the tested cold product. The line of the equation I50 =(B/Tmax+B/Tmin)/2 was determined.
B/T max=% of the bound tritiated hormone for an incubation of this tritiated hormone at concentration (T). […]

SMILES | relative affinity of bonding (RBA)
CCC1(CC)C(=O)N(c2ccc(C#N)c(C(F)(F)F)c2)C(=S)N1C [Example 5, 4-(4,4-diethyl-3-methyl-5-oxo-2-thioxo-1-imidazolidinyl)-2-trifluoromethyl-benzonitrile] | 8
CN1C(=S)N(c2ccc(C#N)c(C(F)(F)F)c2)C(=O)C12CCCC2 [Example 3, 4-(1-methyl-4-oxo-2-thioxo-1,3-diazaspiro(4,4)nonan-3-yl)-2-trifluoromethyl-benzonitrile] | 27
